Experimental data from patent US9024041B2, “P38 MAP kinase inhibitors” (Respivert Ltd., priority 2010, dated 2015).
Marks after values point to notes of the source that are not given here.

Assays:
[1] = tested on: Poly I:C-induced ICAM-1 expression in BEAS2B cells; assay: Poly I:C-induced ICAM-1 induction in BEAS2B cells; assay type: cell-based; details: Homo sapiens, BEAS-2B, poly I:C 1 μg/mL, 18 hr, read-out: PolyI:C/ICAM1 IC50 BEAS2B
Description: Cellular Potency as Determined by Poly I:C-Induced ICAM-1 Induction in BEAS2B Cells
Poly I:C (1 μg/mL) (Invivogen Ltd., San Diego, Calif.) was transfected into BEAS2B cells (human bronchial epithelial cells, ATCC) with Oligofectamine (Invitrogen, Carlsbad, Calif.). Cells were pre-incubated with final concentrations of test compounds for 2 hr and the level of ICAM1 expression on the cell surface was determined by cell-based ELISA. At a time point 18 hr after poly I:C transfection, cells were fixed with 4% formaldehyde in PBS and then endogenous peroxidase was quenched by the addition of 0.1% sodium azide and 1% hydrogen peroxide. Cells were washed with wash-buffer (0.1% Tween in PBS: PBS-Tween). and after blocking the wells with 5% milk in PBS-Tween for 1 hr, the cells were incubated with anti-human ICAM-1 antibody (Cell Signaling Technology, Danvers, Mass.) in 1% BSA PBS overnight at 4° C. The cells were washed with PBS-Tween and incubated with the secondary antibody (HRP-conjugated anti-rabbit IgG, Dako Ltd., Glostrup, Denmark). The ICAM-1 signal was detected by adding substrate and reading the absorbance at 450 nm against a reference wavelength of 655 nm using a spectrophotometer. The cells were then washed with PBS-Tween and total cell numbers in each well were determined by reading absorbance at 595 nm after Crystal Violet staining and elution by 1% SDS solution. The measured OD 450-655 readings were corrected for cell number by dividing with the OD595 reading in each well. The inhibition of ICAM-1 expression was calculated at each concentration of test compound by comparison with vehicle control. The 50% inhibitory concentration (IC50) was determined from the resultant concentration-response curve.

[2] = tested on: LPS-induced IL-8 release in d-U937 cells; assay: LPS-induced IL-8 release in d-U937 cells; assay type: cell-based; details: Homo sapiens, dU937, 0.1 μg/mL LPS, 4 hr
Description: (§1) Cellular Potency as Determined by LPS-Induced TNFα/IL-8 Release in d-U937Cells
(§2) U937 cells, a human monocytic cell line, were differentiated to macrophage-type cells by incubation with phorbol myristate acetate (PMA; 100 ng/mL) for 48 to 72 hr. Cells were pre-incubated with final concentrations of test compound for 2 hr and were then stimulated with 0.1 μg/mL of LPS (from E. Coli: O111:B4, Sigma) for 4 hr. The supernatant was collected for determination of TNFα and IL-8 concentrations by sandwich ELISA (Duo-set, R&D systems). […] The relative 50% effective concentration (REC50) was determined from the resultant concentration-response curve. The inhibition of IL-8 production was calculated at each concentration of test compound by comparison with vehicle control. The 50% inhibitory concentration (IC50) was determined from the resultant concentration-response curve.

[3] = target: T1, Recombinant, phosphorylated p38 MAPKγ (MAPK12:Invitrogen) (Homo sapiens, UniProt P53778); assay: p38 MAPKγ enzyme inhibition assay (FRET, Z-LYTE); assay type: biochemical; details: 2 hr pre-incubation, ATP 100 μM; read-out: Enzyme Inhibition IC50 p38γ
T1 construct: purchased Invitrogen
T1 sequence (P53778 1-367): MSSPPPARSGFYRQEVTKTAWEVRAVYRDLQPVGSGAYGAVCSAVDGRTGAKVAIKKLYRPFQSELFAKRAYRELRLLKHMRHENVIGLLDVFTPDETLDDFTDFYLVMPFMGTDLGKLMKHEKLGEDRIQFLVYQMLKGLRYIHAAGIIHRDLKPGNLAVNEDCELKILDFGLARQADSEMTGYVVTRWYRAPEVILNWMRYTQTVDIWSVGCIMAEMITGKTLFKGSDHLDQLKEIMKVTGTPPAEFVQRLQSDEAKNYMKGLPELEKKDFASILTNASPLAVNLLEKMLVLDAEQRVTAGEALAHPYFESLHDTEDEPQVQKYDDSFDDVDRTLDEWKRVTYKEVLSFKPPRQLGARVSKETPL
Description: The enzyme inhibitory activities of compounds disclosed herein were determined by fluorescence resonance energy transfer (FRET) using synthetic peptides labelled with both donor and acceptor fluorophores (Z-LYTE, Invitrogen Ltd., Paisley, UK). Recombinant, phosphorylated p38 MAPKγ (MAPK12:Invitrogen) was diluted in HEPES buffer, mixed with the test compound at the desired final concentrations and incubated for 2 hr at RT. The FRET peptide (2 μM) and ATP (100 μM) were added to the enzyme/compound mixture and incubated for 1 hr. Development reagent (protease) was added for 1 hr prior to detection in a fluorescence microplate reader (Varioskan® Flash, ThermoFisher Scientific). The site-specific protease cleaves non-phosphorylated peptide only and eliminates the FRET signal. Phosphorylation levels of each reaction were calculated using the ratio of coumarin emission (donor) over fluorescein emission (acceptor) for which high ratios indicate high phosphorylation and low ratios indicate low phosphorylation levels.

[4] = target: T2, p38 MAPKα isoform (MAPK14: Invitrogen) (Homo sapiens, UniProt Q16539); assay: p38 MAPKα enzyme inhibition assay (FRET, Z-LYTE, via MAPKAP-K2 activation); assay type: biochemical; details: 2 hr pre-incubation, ATP 10.0 μM; read-out: Enzyme Inhibition IC50 p38α
T2 construct: purchased Invitrogen

[5] = tested on: LPS-induced TNFα release in d-U937 cells; assay: LPS-induced TNFα release in d-U937 cells; assay type: cell-based; details: Homo sapiens, dU937, 4 h; read-out: LPS/TNFα REC50 d-U937
Description: as §1, §2

[6] = tested on: Differentiated U937 cells; assay: MTT assay: cell viability on exposure to test compounds; assay type: cell-based, human; details: percentage loss of cell viability vs vehicle; for MTT Assay (Viability) 4 h d-U937: 5% FCS; for MTT Assay (Viability) 24 h d-U937: 10% FCS
Description: MTT Assay: Determination of Cell Viability on Exposure to Test Compounds
Differentiated U937 cells were pre-incubated with each test compound under two protocols: the first for 4 hr in 5% FCS and the second in 10% FCS for 24 h. The supernatant was replaced with 200 μL of new media and 10 μL of MTT stock solution (5 mg/mL) was added to each well. After incubation for 1 hr the media were removed, 200 μL of DMSO was added to each well and the plates were shaken lightly for 1 hr prior to reading the absorbance at 550 nm. The percentage loss of cell viability was calculated for each well relative to vehicle (0.5% DMSO) treatment. Consequently an apparent increase in cell viability for drug treatment relative to vehicle is tabulated as a negative percentage.

[7] = tested on: LPS-induced TNFα release in THP-1 cells; assay: LPS-induced TNFα release in THP-1 cells; assay type: cell-based; details: Homo sapiens, 3 μg/mL LPS, 4 hr
Description: Cellular Potency as Determined by LPS-Induced TNFα Release in THP-1 Cells
THP-1 cells, a human monocytic cell line, were stimulated with 3 μg/mL of LPS (from E. Coli; 0111:B4, Sigma) for 4 hr and the supernatant collected for determination of the TNFα concentration by sandwich ELISA (Duo-set, R&D systems). The inhibition of TNFα production was calculated at each concentration by comparison with vehicle control. The 50% inhibitory concentration (IC50) was determined from the resultant concentration-response curve.

T2 sequence (Q16539 whole entry, canonical isoform): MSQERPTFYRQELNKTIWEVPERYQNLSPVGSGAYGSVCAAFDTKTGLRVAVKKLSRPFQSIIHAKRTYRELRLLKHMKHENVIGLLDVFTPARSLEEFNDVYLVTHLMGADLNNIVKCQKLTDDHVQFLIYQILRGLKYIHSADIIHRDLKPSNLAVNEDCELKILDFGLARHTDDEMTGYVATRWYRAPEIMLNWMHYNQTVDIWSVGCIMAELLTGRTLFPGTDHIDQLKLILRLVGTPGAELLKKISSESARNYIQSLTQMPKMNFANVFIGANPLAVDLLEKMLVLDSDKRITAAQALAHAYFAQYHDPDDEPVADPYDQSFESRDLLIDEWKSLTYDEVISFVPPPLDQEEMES

| Structure (SMILES) | IC50 [2] | IC50 [3] | IC50 [4] | EC50 [5] | IC50 [7] | IC50 [1] | MTT Assay (Viability) 4 h d-U937 ([6]; 1 μg/mL) | MTT Assay (Viability) 24 h d-U937 ([6]; 1 μg/mL) | MTT Assay (Viability) 4 h d-U937 ([6]; 10 μg/mL) | MTT Assay (Viability) 24 h d-U937 ([6]; 10 μg/mL) |
| --- | --- | --- | --- | --- | --- | --- | --- | --- | --- | --- |
| COCC(=O)Nc1cc(Oc2ccc(NC(=O)Nc3cc(C(C)(C)C)nn3-c3ccc(O)nc3)c3ccccc23)ccn1.Cl [Example 17, N-(4-(4-(3-(3-tert-Butyl-1-(6-hydroxypyridin-3-yl)-1H-pyrazol-5-yl)ureido)naphthalen-1-yloxy)pyridin-2-yl)-2-methoxyacetamide] | 24.5 nM | 76.3 nM | 14.3 nM | 1.4 nM | 2 nM | 25.3 nM | −6.1% | −7.6% | – | – |
| COCC(=O)Nc1cc(Oc2ccc(NC(=O)Nc3cc(C(C)(C)C)nn3-c3cc(C)cs3)c3ccccc23)ccn1 [Example 18, N-(4-(4-(3-(3-tert-Butyl-1-(4-methylthiophen-2-yl)-1H-pyrazol-5-yl)ureido)naphthalen-1-yloxy)pyridin-2-yl)-2-methoxyacetamide] | 40 nM | 95.5 nM | 8.8 nM | 0.7 nM | 1.2 nM | 3.7 nM | 8.2% | −2.9% | – | – |
| COCC(=O)Nc1cc(Oc2ccc(NC(=O)Nc3cc(-c4ccccc4)nn3-c3ccccc3)c3ccccc23)ccn1 [Example 19, N-(4-((4-(3-(1,3-Diphenyl-1H-pyrazol-5-yl)ureido)naphthalen-1-yl)oxy)pyridin-2-yl)-2-methoxyacetamide] | 24.5 nM | 261 nM | 0.4 nM | 8.1 nM | 1.8 nM | 369 nM | −1.7% | −11.7% | – | – |
| COCC(=O)Nc1cc(Oc2ccc(NC(=O)Nc3cc(C4(C)CCOCC4)nn3-c3ccc(C)cc3)c3ccccc23)ccn1 [Example 20, 2-Methoxy-N-(4-(4-(3-(3-(4-methyltetrahydro-2H-pyran-4-yl)-1-p-tolyl-1H-pyrazol-5-yl)ureido)naphthalen-1-yloxy)pyridin-2-yl)acetamide] | 0.6 nM | 143 nM | 3.6 nM | 0.2 nM | 0.9 nM | 4.4 nM | −32.6% | −9.0% | – | – |
| COCC(=O)Nc1cc(Sc2ccc(NC(=O)Nc3cc(C(C)(C)C)nn3-c3ccc(C)cc3)c3ccccc23)ccn1 [Example 21, N-(4-(4-(3-(3-tert-Butyl-1-p-tolyl-1H-pyrazol-5-yl)ureido)naphthalen-1-ylthio)pyridin-2-yl)-2-methoxyacetamide] | 30.3 nM | 341 nM | 26 nM | 6.6 nM | 2.5 nM | 6.3 nM | 2.7% | 5.3% | – | – |
| COCCOCC(=O)Nc1cc(C(=O)c2ccc(NC(=O)Nc3cc(C(C)(C)C)nn3-c3ccc(C)cc3)c3ccccc23)ccn1 [Example 22, N-(4-(4-(3-(3-(tert-Butyl)-1-(p-tolyl)-1H-pyrazol-5-yl)ureido)-1-naphthoyl)pyridin-2-yl)-2-(2-methoxyethoxy)acetamide] | 651 nM | 7030 nM | 14 nM | 3 nM | 53.6 nM | 572 nM | – | – | 21.1^b % | 80.8^b % |

Further lines, with some results ahead:

| IC50 [2] | IC50 [3] | IC50 [4] | EC50 [5] | IC50 [7] | Structure (SMILES) | IC50 [1] | MTT Assay (Viability) 4 h d-U937 ([6]; 1 μg/mL) | MTT Assay (Viability) 24 h d-U937 ([6]; 1 μg/mL) | MTT Assay (Viability) 4 h d-U937 ([6]; 10 μg/mL) | MTT Assay (Viability) 24 h d-U937 ([6]; 10 μg/mL) |
| --- | --- | --- | --- | --- | --- | --- | --- | --- | --- | --- |
| 21.4 nM | 3010 nM | 20.3 nM | 3.4 nM | 12.4 nM | CCNC(=O)Nc1cc(Cc2ccc(NC(=O)Nc3cc(C(C)(C)C)nn3-c3ccc(C)cc3)c3ccccc23)ccn1 [Example 23, 1-(3-(tert-Butyl)-1-(p-tolyl)-1H-pyrazol-5-yl)-3-(4-((2-(3-ethylureido)pyridin-4-yl)methyl)naphthalen-1-yl)urea] | 20.3 nM | – | – | 15.2^b % | −1.7^b % |
| 35.6 nM | 1340 nM | 1.5 nM | 3.3 nM | 11.8 nM | COCC(=O)Nc1cc(Oc2ccc(NC(=O)Nc3cc(C4CC4)nn3-c3ccc(C)cc3)c3ccccc23)ccn1 [Example 24, N-(4-((4-(3-(3-cyclopropyl-1-p-tolyl-1H-pyrazol-5-yl)ureido)naphthalen-1-yl)oxy)pyridin-2-yl)-2-methoxyacetamide] | 110 nM | −10.8% | −7.4% | – | – |
| 1 nM | 779 nM | 48.2 nM | 0.4 nM | 3.5 nM | COCC(=O)Nc1cc(Oc2ccc(NC(=O)Nc3cc(C4(C)CCCCC4)nn3-c3ccc(C)cc3)c3ccccc23)ccn1 [Example 26, 2-methoxy-N-(4-(4-(3-(3-(1-methylcyclohexyl)-1-p-tolyl-1H-pyrazol-5-yl)ureido)naphthalen-1-yloxy)pyridin-2-yl)acetamide] | 4.4 nM | −27.9% | −33.2% | – | – |
| 3520 nM | 1970 nM | 74.3 nM | 18.8 nM | 15.2 nM | COCC(=O)Nc1cc(Oc2ccc(NC(=O)Nc3cc(C45CC6CC(CC(C6)C4)C5)nn3-c3ccc(C)cc3)c3ccccc23)ccn1 [Example 27, N-(4-(4-(3-(3-(adamantan-1-yl)-1-p-tolyl-1H-pyrazol-5-yl)ureido)naphthalen-1-yloxy)pyridin-2-yl)-2-methoxyacetamide] | 284 nM | −4.6% | −23.9% | – | – |
| 62.7 nM | 9300 nM | 1.4 nM | 7.1 nM | 41.3 nM | COCC(=O)Nc1cc(Oc2ccc(NC(=O)Nc3cc(C4CCOCC4)nn3-c3ccc(C)cc3)c3ccccc23)ccn1 [Example 28, 2-methoxy-N-(4-(4-(3-(3-(tetrahydro-2H-pyran-4-yl)-1-p-tolyl-1H-pyrazol-5-yl)ureido)naphthalen-1-yloxy)pyridin-2-yl)acetamide] | 1580 nM | −23.7% | −34.5% | – | – |
